Data published in paper PMC9696794, “Synthesis and Antimicrobial Activity of Short Analogues of the Marine Antimicrobial Peptide Turgencin A: Effects of SAR Optimizations, Cys-Cys Cyclization and Lipopeptide Modifications” (International Journal of Molecular Sciences, 2022).
≈ marks a conversion by molar mass, not a printed value. Where a SMILES comes first, the peptide text is derived from it. Bridges are numbered along the chain shown (N, C = ends). The star is where a group is joined. Decanoyl = CCCCCCCCCC(=O)*

Legend:
[1] = test system: B. subtilis (Bs, ATCC 23857); experiment: microbe, parasite or virus in culture; type: cell-based, Bacillus subtilis; conditions: ATCC 23857, 24 h
In short: (§1)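 Cultures grown in Mueller–Hinton broth were adjusted by OD600 to 2.5–3 × 10^4 CFU/mL and mixed with two-fold peptide dilutions from 256 to 1 µg/mL. Plates were incubated at 35 °C with OD595 monitored every hour for 24 h.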

[2] = test system: S. aureus (Sa, ATCC 9144); experiment: microbe, parasite or virus in culture; type: cell-based, Staphylococcus aureus; conditions: ATCC 9144, 24 h
In short: as §1

all bacterial strains = experiment: Antibacterial MIC assay, all bacterial strains together (range or geometric mean); type: cell-based; conditions: for GM (geometric mean of the MIC values against all bacterial strains): Table 1, six bacterial strains; for GM of MIC Tot. bact.: Table S3, all bacterial test strains, MIC >256 set to 256
In short: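 Broth microdilution in Mueller–Hinton broth against B. subtilis, C. glutamicum, S. aureus, S. epidermidis RP62A, E. coli and P. aeruginosa; inoculum 2.5–3 × 10^4 CFU/mL, 35 °C, OD595 read hourly for 24 h. MIC: lowest peptide concentration giving OD below 10% of growth control; geometric mean across strains, triplicate.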

[3] = test system: Gram-negative bacterial strains (E. coli and P. aeruginosa); experiment: Antibacterial MIC assay, Gram-negative strains together (range or geometric mean); type: cell-based; conditions: Table S3; MIC >256 set to 256
In short: as §1

[4] = test system: fungi (A. pullulans, C. albicans, Rhodotorula sp.); experiment: Antifungal MIC assay, all fungi together (range or geometric mean); type: cell-based; conditions: Table S3; MIC >128 set to 128
In short: (§2)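 Overnight cultures in potato dextrose broth with 2% glucose at 25–30 °C were diluted to approx. 4 × 10^5 spores/mL and mixed 1:1 with two-fold peptide dilutions plated at 256 to 1 µg/mL. After 48 h at room temperature, OD600 was read. MIC was the lowest concentration giving OD below 10% of the growth control, in triplicate.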

Rhodotorula sp. (Rh) = experiment: microbe, parasite or virus in culture; type: cell-based; conditions: 48 h
In short: as §2

[5] = test system: S. epidermidis RP62A (Se, ATCC 35984); experiment: microbe, parasite or virus in culture; type: cell-based, Staphylococcus epidermidis; conditions: ATCC 35984, 24 h
In short: as §1

[6] = test system: E. coli MC4100 (wild type, WT); experiment: microbe, parasite or virus in culture; conditions: wild type
In short: (§3)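 Broth microdilution in Mueller–Hinton medium, 2.5–3 × 10^4 CFU/mL inoculum, two-fold peptide dilutions from 256 to 1 µg/mL, 35 °C with OD595 read hourly for 24 h. MIC is the lowest concentration giving OD below 10% of the untreated growth control; run in triplicate.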

[7] = test system: E. coli NR698 (outer membrane permeable mutant, imp4213); experiment: microbe, parasite or virus in culture; conditions: MC4100 NR698 imp4213, deficient outer membrane
In short: as §3

[8] = test system: human red blood cells (RBC); experiment: Haemolytic activity assay; type: cell-based; conditions: for Selectivity index (SI) G- / Selectivity index (SI) G+ / Selectivity index (SI) Fungi: Table S3, highest tested concentration used where EC50 above it; for Selectivity index (SI) G-: EC50/GM of Gram-negative strains; for Selectivity index (SI) G+: EC50/GM of Gram-positive strains; for Selectivity index (SI) Fungi: EC50/GM of fungi; for SI (selectivity index = EC50/GM): haemolytic EC50 over GM of MIC against all bacterial strains, Table 1; for RBC Tox. (EC50), haemolytic activity: human RBC, 1 h, 37 °C, concentration giving 50% haemolysis
In short: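 Washed human erythrocytes (1% hematocrit final) incubated 1 h at 37 °C with agitation with lipopeptides at 500–3.9 μM in PBS (≤1% DMSO), duplicates. Haemoglobin release read at 545 nm relative to 0.1% Triton X-100; EC50 is 50% haemolysis, averaged from three experiments.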

[9] = test system: C. glutamicum (Cg, ATCC 13032); experiment: microbe, parasite or virus in culture; type: cell-based, Corynebacterium glutamicum; conditions: ATCC 13032, 24 h
In short: as §1

A. pullulans (Ap) = experiment: microbe, parasite or virus in culture; type: cell-based, Aurobasidium pollulans; conditions: 48 h
In short: as §2

E. coli (Ec, ATCC 25922) = experiment: microbe, parasite or virus in culture; type: cell-based, Escherichia coli; conditions: ATCC 25922, 24 h
In short: as §1

[10] = test system: C. albicans (Ca, ATCC 10231); experiment: microbe, parasite or virus in culture; type: cell-based, Candida albicans; conditions: ATCC 10231, 48 h
In short: as §2

[11] = test system: P. aeruginosa (Pa, ATCC 27853); experiment: microbe, parasite or virus in culture; type: cell-based, Pseudomonas aeruginosa; conditions: ATCC 27853, 24 h
In short: as §1

[12] = test system: Gram-positive bacterial strains; conditions: Table S3; MIC >256 set to 256
In short: as §1

SMILES	Antimicrobial Activity (MIC) Gram + Bs [1]	Antimicrobial Activity (MIC) Gram + Sa [2]	GM (geometric mean of the MIC values against all bacterial strains) (all bacterial strains)	GM of MIC Tot. bact. (all bacterial strains)	GM of MIC G- [3]	GM of MIC Fungi [4]	Antimicrobial Activity (MIC) Fungi Rh (Rhodotorula sp. (Rh))	Antimicrobial Activity (MIC) Gram + Se [5]	MIC E. coli MC4100 (WT) [6]	MIC E. coli NR698 (mutant) [7]	Selectivity index (SI) G- [8]	Selectivity index (SI) G+ [8]	Selectivity index (SI) Fungi [8]	RBC Tox. (EC50), haemolytic activity [8]	Antimicrobial Activity (MIC) Gram + Cg [9]	Antimicrobial Activity (MIC) Fungi Ap (A. pullulans (Ap))	Antimicrobial Activity (MIC) Gram − Ec (E. coli (Ec, ATCC 25922))	Antimicrobial Activity (MIC) Fungi Ca [10]	Antimicrobial Activity (MIC) Gram − Pa [11]	GM of MIC G+ [12]	further results
CC(C)C[C@H](NC(=O)[C@H](CCCCN)NC(=O)[C@@H]1CSSC[C@H](N)C(=O)NCC(=O)N[C@@H](CCCCN)C(=O)N[C@@H](CCCCN)C(=O)N[C@@H](Cc2c[nH]c3ccccc23)C(=O)NCC(=O)N[C@@H](Cc2c[nH]c3ccccc23)C(=O)N[C@@H](Cc2c[nH]c3ccccc23)C(=O)N[C@@H](CCCCN)C(=O)N1)C(N)=O [cTurg-3] (H-CGKKWGWWKCKL-NH2; disulfide 1-10; N-terminus assumed)	4 mg/L	32 mg/L	18 mg/L	18 mg/L	64 mg/L	32 mg/L	32 mg/L	16 mg/L	16 mg/L (≈ 10.5 µM)	8 mg/L (≈ 5.26 µM)	13	89	27	849 mg/L	4 mg/L	32 mg/L	32 mg/L	32 mg/L	128 mg/L	10 mg/L	SI (selectivity index = EC50/GM) [8]: 47
CC(C)C[C@H](NC(=O)[C@H](CCCCN)NC(=O)[C@@H]1CSSC[C@H](N)C(=O)NCC(=O)N[C@@H](CCCCN)C(=O)N[C@@H](CCCCN)C(=O)N[C@@H](Cc2c[nH]c3ccccc23)C(=O)N[C@@H](Cc2c[nH]c3ccccc23)C(=O)NCC(=O)N[C@@H](Cc2c[nH]c3ccccc23)C(=O)N[C@@H](CCCCN)C(=O)N1)C(N)=O [cTurg-2] (H-CGKKWWGWKCKL-NH2; disulfide 1-10; N-terminus assumed)	8 mg/L	32 mg/L	20 mg/L	20 mg/L	64 mg/L	32 mg/L	32 mg/L	16 mg/L	16 mg/L (≈ 10.5 µM)	8 mg/L (≈ 5.26 µM)	> 16	> 92	> 33	>1045 mg/L	4 mg/L	32 mg/L	64 mg/L	32 mg/L	64 mg/L	11 mg/L	SI (selectivity index = EC50/GM) [8]: >52
CC(C)C[C@H](NC(=O)[C@H](CCCNC(=N)N)NC(=O)[C@@H]1CSSC[C@H](N)C(=O)NCC(=O)N[C@@H](CCCNC(=N)N)C(=O)N[C@@H](CCCNC(=N)N)C(=O)N2CCC[C@H]2C(=O)N[C@@H](Cc2c[nH]c3ccccc23)C(=O)N[C@@H](Cc2c[nH]c3ccccc23)C(=O)N[C@@H](Cc2c[nH]c3ccccc23)C(=O)N[C@@H](CCCNC(=N)N)C(=O)N1)C(N)=O [cTurg-7] (H-CGRRPWWWRCRL-NH2; disulfide 1-10; N-terminus assumed)	4 mg/L	16 mg/L	10 mg/L	10 mg/L	23 mg/L	32 mg/L	32 mg/L	8 mg/L	8 mg/L (≈ 4.78 µM)	8 mg/L (≈ 4.78 µM)	9	29	6	197 mg/L	4 mg/L	32 mg/L	16 mg/L	32 mg/L	32 mg/L	7 mg/L	SI (selectivity index = EC50/GM) [8]: 20
CCCCCCCCCC(=O)N[C@H]1CSSC[C@@H](C(=O)N[C@@H](CCCCN)C(=O)N[C@@H](CC(C)C)C(N)=O)NC(=O)[C@H](CCCCN)NC(=O)[C@H](Cc2c[nH]c3ccccc23)NC(=O)CNC(=O)CNC(=O)[C@@H]2CCCN2C(=O)[C@H](CCCCN)NC(=O)[C@H](CCCCN)NC(=O)CNC1=O [Peptide C10-cTurg-1, C10 -(CGKKPGGWKC)KL-NH2] (Decanoyl-CGKKPGGWKCKL-NH2; disulfide 1-10)	2 mg/L	16 mg/L	6 mg/L	6 mg/L	16 mg/L	20 mg/L	4 mg/L	4 mg/L	8 mg/L (≈ 5.49 µM)	4 mg/L (≈ 2.75 µM)	> 60	> 239	> 47	>956 mg/L	2 mg/L	32 mg/L	8 mg/L	64 mg/L	32 mg/L	4 mg/L	–
CCCCCCCCCC(=O)N[C@H]1CSSC[C@@H](C(=O)N[C@@H](CCCNC(=N)N)C(=O)N[C@@H](CC(C)C)C(N)=O)NC(=O)[C@H](CCCNC(=N)N)NC(=O)[C@H](Cc2c[nH]c3ccccc23)NC(=O)[C@H](Cc2c[nH]c3ccccc23)NC(=O)CNC(=O)[C@H](Cc2c[nH]c3ccccc23)NC(=O)[C@H](CCCNC(=N)N)NC(=O)[C@H](CCCNC(=N)N)NC(=O)CNC1=O [Peptide C10-cTurg-6, C10- (CGRRWGWWRC)RL-NH2] (Decanoyl-CGRRWGWWRCRL-NH2; disulfide 1-10)	4 mg/L	8 mg/L	8 mg/L	8 mg/L	16 mg/L	51 mg/L	32 mg/L	8 mg/L	8 mg/L (≈ 4.48 µM)	8 mg/L (≈ 4.48 µM)	1	3	–	16 mg/L	4 mg/L	64 mg/L	16 mg/L	64 mg/L	16 mg/L	6 mg/L	SI (selectivity index = EC50/GM) [8]: 2
